Experimental data from patent publication US8916183B2, “Pesticidal compositions and processes related thereto” (priority 2012, dated 2014).

Tests used:
[1] = tested on: Corn Earworm (CEW) (Helicoverpa zea); experiment: Bioassay on corn earworm (CEW), 128-well diet tray assay; type: in vivo; conditions: Helicoverpa zea; corn earworm, 50 μg/cm^2; read-out: % Mortality CEW 50 μg/cm^2
Description: (§1) Certain molecules disclosed in this document were tested against BAW and CEW using procedures described in the following examples. In the reporting of the results, the “BAW & CEW Rating Table” was used (See Table Section).
Bioassays on CEW (Helicoverpa zea)
Bioassays on CEW were conducted using a 128-well diet tray assay. […] Trays were covered with a clear self-adhesive cover and held at 25° C., 14:10 light-dark for five to seven days. Percent mortality was recorded for the larvae in each well; activity in the eight wells was then averaged. The results are indicated in the table entitled “Table 5: Biological Results” (See Table Section).

[2] = tested on: Beet Armyworm (BAW) (Spodoptera exigua); experiment: Bioassay on beet armyworm (BAW), 128-well diet tray assay; type: in vivo; conditions: Spodoptera exigua; beet armyworm, 50 μg/cm^2; read-out: % Mortality BAW 50 μg/cm^2
Description: as §1
Bioassays on BAW (Spodoptera exigua)
Bioassays on BAW were conducted using a 128-well diet tray assay. […] Trays were covered with a clear self-adhesive cover and held at 25° C., 14:10 light-dark for five to seven days. Percent mortality was recorded for the larvae in each well; activity in the eight wells was then averaged. The results are indicated in the table entitled “Table 5: Biological Results” (See Table Section).

SMILES | mortality at 50 µg/cm2 [1] | mortality at 50 µg/cm2 [2]
Cc1cc(C)c(N2/C(=N/N=C/c3ccc(-c4ncn(-c5ccc(OC(F)(F)F)cc5)n4)cc3)SCC2C)c(C)c1 (stereo not shown) [Compound 161C] | 50 to 100% | 50 to 100%
COc1ccc(N2/C(=N/N=C/c3ccc(-c4ncn(-c5ccc(OC(F)(F)F)cc5)n4)cc3)SCC2C)c(C)c1 (stereo not shown) [Compound 162C] | 50 to 100% | 50 to 100%
CCC(C)c1ccccc1N1/C(=N/N=C/c2ccc(-c3ncn(-c4ccc(OC(F)(F)F)cc4)n3)cc2)SCC1C (stereo not shown) [Compound 163C] | 50 to 100% | 50 to 100%
CC1CS/C(=N\N=C\c2ccc(-c3ncn(-c4ccc(OC(F)(F)F)cc4)n3)cc2)N1c1ccccc1OC(F)F (stereo not shown) [Compound 164C] | 50 to 100% | 50 to 100%
CC1CS/C(=N\N=C\c2ccc(-c3ncn(-c4ccc(OC(F)(F)F)cc4)n3)cc2)N1c1ccccc1C(C)(C)C (stereo not shown) [Compound 165C] | 50 to 100% | 50 to 100%
CCC1CS/C(=N\N=C\c2ccc(-c3ncn(-c4ccc(OC(F)(F)F)cc4)n3)cc2)N1c1ccccc1C (stereo not shown) [Compound 166C] | 50 to 100% | 50 to 100%
CCC1CS/C(=N\N=C\c2ccc(-c3ncn(-c4ccc(OC(F)(F)F)cc4)n3)cc2)N1c1c(C)cccc1Cl (stereo not shown) [Compound 167C] | 50 to 100% | 50 to 100%
Cc1cs/c(=N\N=C\c2ccc(-c3ncn(-c4ccc(OC(F)(F)F)cc4)n3)cc2)n1-c1c(Cl)cccc1C(F)(F)F [Compound 169C] | 50 to 100% | 50 to 100%
Cc1cs/c(=N\N=C\c2ccc(-c3ncn(-c4ccc(OC(F)(F)F)cc4)n3)cc2)n1-c1ccccc1OC(F)(F)F [Compound 170C] | 50 to 100% | 50 to 100%
Cc1cs/c(=N\N=C\c2ccc(-c3ncn(-c4ccc(OC(F)(F)F)cc4)n3)cc2)n1-c1c(F)cccc1F [Compound 171C] | 50 to 100% | 50 to 100%
Cc1cs/c(=N\N=C\c2ccc(-c3ncn(-c4ccc(OC(F)(F)F)cc4)n3)cc2)n1-c1ccccc1C(C)C [Compound 176C] | 50 to 100% | 50 to 100%
FC(F)(F)Oc1ccc(-n2cnc(-c3ccc(/C=N/N=C4\SCCCN4c4ccccc4OC(F)(F)F)cc3)n2)cc1 [Compound 199C] | 50 to 100% | 50 to 100%
CCOC(=O)c1ccc(N2CCCS/C2=N\N=C\c2ccc(-c3ncn(-c4ccc(OC(F)(F)F)cc4)n3)cc2)cc1 [Compound 207C] | 0% | 0%
CC(C)(C)c1ccccc1N1CCCS/C1=N\N=C\c1ccc(-c2ncn(-c3ccc(OC(F)(F)F)cc3)n2)cc1 [Compound 210C] | 50 to 100% | 50 to 100%
CC1CS/C(=N\N=C\c2ccc(-c3ncn(-c4ccc(OC(F)(F)F)cc4)n3)cc2)N(c2ccccc2OC(F)(F)F)C1 (stereo not shown) [Compound 214C] | 50 to 100% | 50 to 100%
CC1CS/C(=N\N=C\c2ccc(-c3ncn(-c4ccc(OC(F)(F)F)cc4)n3)cc2)N(c2c(Cl)cccc2C(F)(F)F)C1 (stereo not shown) [Compound 215C] | 50 to 100% | 50 to 100%
CC1CCS/C(=N\N=C\c2ccc(-c3ncn(-c4ccc(OC(F)(F)F)cc4)n3)cc2)N1c1ccccc1OC(F)(F)F (stereo not shown) [Compound 216C] | 50 to 100% | 50 to 100%
CC1CCS/C(=N\N=C\c2ccc(-c3ncn(-c4ccc(OC(F)(F)F)cc4)n3)cc2)N1c1c(Cl)cccc1C(F)(F)F (stereo not shown) [Compound 217C] | 50 to 100% | 50 to 100%

SMILES | mortality at 50 µg/cm2 [1] | mortality at 50 µg/cm2 [2]
Cc1cc(C)c(N2/C(=N/N=C/c3ccc(-c4ncn(-c5ccc(OC(F)(F)F)cc5)n4)cc3)SCCC2C)c(C)c1 (stereo not shown) [Compound 218C] | 50 to 100% | 50 to 100%
COc1ccc(N2/C(=N/N=C/c3ccc(-c4ncn(-c5ccc(OC(F)(F)F)cc5)n4)cc3)SCCC2C)c(C)c1 (stereo not shown) [Compound 219C] | 50 to 100% | 50 to 100%
CCC(C)c1ccccc1N1/C(=N/N=C/c2ccc(-c3ncn(-c4ccc(OC(F)(F)F)cc4)n3)cc2)SCCC1C (stereo not shown) [Compound 220C] | 50 to 100% | 50 to 100%
CC1CCS/C(=N\N=C\c2ccc(-c3ncn(-c4ccc(OC(F)(F)F)cc4)n3)cc2)N1c1ccccc1OC(F)F (stereo not shown) [Compound 221C] | 50 to 100% | 50 to 100%
CC1CCS/C(=N\N=C\c2ccc(-c3ncn(-c4ccc(OC(F)(F)F)cc4)n3)cc2)N1c1ccccc1C(C)(C)C (stereo not shown) [Compound 222C] | 50 to 100% | 50 to 100%
Cc1cccc(C)c1N1C(=O)CCS/C1=N\N=C\c1ccc(-c2ncn(-c3ccc(OC(F)(F)F)cc3)n2)cc1 [Compound 223C] | 50 to 100% | 50 to 100%
CCc1cccc(C)c1N1C(=O)CCS/C1=N\N=C\c1ccc(-c2ncn(-c3ccc(OC(F)(F)F)cc3)n2)cc1 [Compound 225C] | 50 to 100% | 50 to 100%
O=C1CCS/C(=N\N=C\c2ccc(-c3ncn(-c4ccc(OC(F)(F)F)cc4)n3)cc2)N1c1c(F)cccc1F [Compound 226C] | 50 to 100% | 50 to 100%
Cc1cccc(Cl)c1N1C(=O)CCS/C1=N\N=C\c1ccc(-c2ncn(-c3ccc(OC(F)(F)F)cc3)n2)cc1 [Compound 227C] | 50 to 100% | 50 to 100%
O=C1CCS/C(=N\N=C\c2ccc(-c3ncn(-c4ccc(OC(F)(F)F)cc4)n3)cc2)N1c1c(Cl)cccc1C(F)(F)F [Compound 228C] | 50 to 100% | 50 to 100%
CC(F)(F)Oc1ccccc1N1C(=O)CCS/C1=N\N=C\c1ccc(-c2ncn(-c3ccc(OC(F)(F)F)cc3)n2)cc1 [Compound 229C] | 50 to 100% | 50 to 100%
CCC(C)c1ccccc1N1C(=O)CCS/C1=N\N=C\c1ccc(-c2ncn(-c3ccc(OC(F)(F)F)cc3)n2)cc1 (stereo not shown) [Compound 230C] | 50 to 100% | 50 to 100%
COc1ccc(N2C(=O)CCS/C2=N\N=C\c2ccc(-c3ncn(-c4ccc(OC(F)(F)F)cc4)n3)cc2)c(C)c1 [Compound 231C] | 50 to 100% | 50 to 100%
CC(C)(C)c1ccccc1N1C(=O)CCS/C1=N\N=C\c1ccc(-c2ncn(-c3ccc(OC(F)(F)F)cc3)n2)cc1 [Compound 232C] | 50 to 100% | 50 to 100%
O=C1CCS/C(=N\N=C\c2ccc(-c3ncn(-c4ccc(OC(F)(F)F)cc4)n3)cc2)N1c1ccccc1OC(F)F [Compound 233C] | 50 to 100% | 50 to 100%
Cc1cccc(C(C)C)c1N1C(=O)CS/C1=N\N=C\c1ccc(-c2ncn(-c3ccc(OC(F)(F)F)cc3)n2)cc1 [Compound 238C] | 50 to 100% | 50 to 100%
CC1(O)CS/C(=N\c2c(Cl)cccc2C(F)(F)F)N1/N=C/c1ccc(-c2ncn(-c3ccc(OC(F)(F)F)cc3)n2)cc1 (stereo not shown) [Compound 241C, (Z)-2-((2-chloro-6-(trifluoromethyl)phenyl)imino)-4-methyl-3-((E)-(4-(1-(4-(trifluoromethoxy)phenyl)-1H-1,2,4-triazol-3-yl)benzylidene)amino)thiazolidin-4-ol] | 50 to 100% | 50 to 100%
